Results taken from patent publication US6653508B2, “3-amino-2-benzyl-1-phenylpropane derivatives” (Gruenenthal GmbH, priority 1999, dated 2003).
Counter-ions that a name gives are not always drawn.

Key:
[1] = test system: phenylquinone-induced writhing reactions in mice; experiment: Phenylquinone-induced writhing test in mice; format: in vivo; settings: Mus musculus, iv; male mice, 10 mg/kg i.v.; phenylquinone i.p. 10 minutes after test substance; writhing counted 5-20 minutes after phenylquinone
Procedure: The analgesic effectiveness of the compounds according to the invention is investigated in mice by the phenylquinone-induced writhing test as modified by I. C. Hendershot, J. Forsaith in J. Pharmacol. Exp. Ther. 125, 237-240 (1959). For this purpose male mice weighing 25-30 g are used. Groups in each case of 10 animals received per substance a dose, 10 minutes after intravenous administration of the test substances, 0.3 ml/mouse of a 0.02% aqueous solution of phenylquinone (phenylbenzoquinone, Sigma, Deisenhofen; solution prepared under the addition of 5% ethanol and storage in a water bath at 45° C.) applied intraperitoneally. The animals were then placed individually in observation cages. The number of pain-induced stretching movements (so-called writhing reactions=straightening of the body with stretching of the rear extremities) was counted with a push-button counter 5-20 minutes after administration of the phenyl quinone. Animals that had only received physiological saline solution with the phenylquinone served as controls.
All substances were tested in a standard dose of 10 mg/kg. The percentage inhibition (% inhibition) of the writhing reactions achieved by a substance was calculated according to the following formula: [formula]

Structure (SMILES) | melting point [°C] | inhibition in vivo at 10 mg/kg [1] [%]
CNCC(Cc1cccc(C)c1)C(=O)c1cccc(OC)c1.Cl (racemic) | 118 to 120 | 
COc1cccc(C(=O)[C@@H](CN(C)C)[C@H](c2ccccc2)c2cccc(OC)c2)c1.Cl (racemic) | 139.1 | 
CN(C)CC(Cc1ccccc1)C(=O)c1cc(Cl)ccc1Cl (racemic) [Example 13, (2RS)-2-benzyl-1-(2,5-dichlorophenyl)-3-dimethylaminopropan-1-one hydrochloride] |  | 70
COc1cc(OC)cc(C(=O)C(Cc2ccccc2)CN(C)C)c1 (racemic) [Example 7, (2RS)-2-benzyl-1-(3,5-dimethoxyphenyl)-3-dimethylamino-propan-1-one hydrochloride] |  | 75
CN(C)CC(Cc1ccccc1)C(=O)c1ccc2ccc3ccccc3c2c1.Cl (racemic) | 138.7 | 
COc1cccc(C(=O)C(Cc2cccc(Cl)c2)CN(C)C)c1 (racemic) [Example 72, (2RS)-2-(3-chlorobenzyl)-3-dimethylamino-1-(3-methoxyphenyl)-propan-1-one hydrochloride] |  | 85
CN(C)CC(Cc1ccccc1)C(=O)c1ccc2cc(O)ccc2c1.Cl (racemic) [Example 29, (2RS)-2-benzyl-3-dimethylamino-1-(6-hydroxynaphthalen-2-yl)-propan-1-one hydrochloride] | 180 to 182 | 82
COc1cccc(C(=O)[C@@H](Cc2ccccc2)CN(C)C)c1 [Example 11, (−)-(S)-2-benzyl-3-dimethylamino-1-(3-methoxyphenyl)-propan-1-one hydrochloride] |  | 90
CN(C)CC(Cc1ccccc1)C(=O)c1cccc(O)c1.Cl (racemic) [Example 6, (2RS)-2-benzyl-3-dimethylamino-1-(3-hydroxyphenyl)-propan-1-one hydrochloride] | 169 | 84
CN(C)CC(Cc1ccccc1)C(=O)c1cccc(C#N)c1.Cl (racemic) [Example 26, (2RS)-3-(2-benzyl-3-dimethylaminopropionyl)-benzonitrile hydrochloride] | 154 | 79
CC[C@@H](c1ccccc1)[C@H](CN(C)C)C(=O)c1cccc(OC)c1.Cl (racemic) | 89.5 | 
CN(C)CC(Cc1ccccc1)C(=O)c1ccccc1-c1ccccc1.Cl (racemic) | 134 to 134.8 | 
COc1ccc(C(=O)C(Cc2ccccc2)CN(C)C)c(C)c1C (racemic) [Example 71, (2RS)-2-benzyl-3-dimethylamino-1-(4-methoxy-2,3-dimethylphenyl)-propan-1-one hydrochloride] |  | 94
COc1cccc(C(=O)C(Cc2ccc(F)cc2)CN(C)C)c1.Cl (racemic) | 138 | 
C/C=C(\c1cccc(OC)c1)C(Cc1ccccc1)CN(C)C (racemic) [Example 65, Z-(2RS)-[2-benzyl-3-(3-methoxyphenyl)-pent-3-enyl]-dimethyl-amine hydrochloride] |  | 100
CSc1cccc(C(=O)C(Cc2ccccc2)CN(C)C)c1.Cl (racemic) [Example 22, (2RS)-2-benzyl-3-dimethylamino-1-(3-methylsulfanylphenyl)-propan-1-one hydrochloride] | 118 | 62
COc1ccc(OC)c(C(=O)C(Cc2ccccc2)CN(C)C)c1.Cl (racemic) [Example 8, (2RS)-2-benzyl-1-(2,5-dimethoxyphenyl)-3-dimethylaminopropan-1-one hydrochloride] | 149 | 92
CN(C)CC(Cc1ccccc1)C(=O)c1cccc(OCc2ccccc2)c1 (racemic) [Example 2, (2RS)-1-(3-benzyloxyphenyl)-2-dimethylaminomethyl-3-phenylpropan-1-one hydrochloride] |  | 85
COc1cccc(C(=O)C(Cc2ccc(F)c(F)c2)CN(C)C)c1.Cl (racemic) | 128 | 

Second part, led by results:

melting point [°C] | Structure (SMILES) | inhibition in vivo at 10 mg/kg [1] [%]
135.3 | CN(C)CC(Cc1ccccc1)C(=O)c1ccc2ccccc2c1.Cl (racemic) | 
125 | COc1cc(C(=O)C(Cc2ccccc2)CN(C)C)cc(OC)c1OC.Cl (racemic) | 
141 | COc1cccc(C(=O)C(Cc2cccc(F)c2)CN(C)C)c1.Cl (racemic) | 
123 | CN(C)CC(Cc1ccccc1)C(=O)c1ccccc1O.Cl (racemic) | 
150.3 | CN(C)CC(Cc1ccccc1)C(=O)c1ccc(F)cc1Cl.Cl (racemic) | 
134 | COc1ccc(CC(CN(C)C)C(=O)c2cccc(OC)c2)cc1.Cl (racemic) | 
177 | CN(C)CC(Cc1ccccc1)C(=O)c1cc(O)ccc1O.Cl (racemic) | 
159 | COc1ccccc1C(=O)C(Cc1ccccc1)CN(C)C.Cl (racemic) | 
88 to 95 | COc1ccc2cc(C(=O)C(Cc3ccccc3)CN(C)C)ccc2c1.Cl (racemic) | 
104 | CN(C)CC(Cc1ccccc1)C(=O)c1cccc(C(F)(F)F)c1.Cl (racemic) | 
111 | COc1cccc(C(=O)C(Cc2ccccc2F)CN(C)C)c1.Cl (racemic) | 
141 | COc1ccc(C(=O)C(Cc2ccccc2)CN(C)C)c(OC)c1OC.Cl (racemic) | 
114 | CN(C)CC(Cc1ccccc1)C(=O)c1cccc(Cl)c1Cl.Cl (racemic) | 
